Data as given in article PMC11418123, “Structure of a truncated human GlcNAc-1-phosphotransferase variant reveals the basis for its hyperactivity” (The Journal of Biological Chemistry, 2024).
One block for each molecule: values may come before it.

Tests used:
[1] = biological target: soluble S1S3, truncated hyperactive variant of human GlcNAc-1-phosphotransferase (PTase) αβ lacking both transmembrane domains and cytosolic tails (human | Dictyostelium discoideum); experiment: cryo-EM structure; single-particle cryo-EM of purified soluble S1S3 at 0.8 mg/ml; 3.4 Å
[2] = biological target: T1, S1S3 (Homo sapiens, UniProt Q3T906, H959F); experiment: PTase activity assay, UDP-[3H]GlcNAc; assay type: biochemical; details: H279 = H959 of full-length hPTase
T1 construct: gene GNPTAB; soluble truncation, no TM domains; S1 (233 aa) replaced by 29-aa Dictyostelium discoideum PTase linker; Notch1 to S1P site deleted, GGSGG linker; melittin signal, N-HA, C-HPC4; secreted from T. ni cells; single chain, dimer

[3] = biological target: T2, Dm PTase (Drosophila melanogaster, UniProt A1Z7S7); experiment: PTase activity assay, UDP-[3H]GlcNAc; assay type: biochemical; details: donor, labelled compound; acceptor 100 mM α-MM
T2 construct: gene Gnptab; soluble, without N- and C-terminal TM domains and cytosolic tails; melittin signal, N-HA, C-HPC4; secreted from T. ni cells; single chain; H375 and F378 correspond to human H956 and H959
T2 sequence (A1Z7S7 47-630 limits assumed): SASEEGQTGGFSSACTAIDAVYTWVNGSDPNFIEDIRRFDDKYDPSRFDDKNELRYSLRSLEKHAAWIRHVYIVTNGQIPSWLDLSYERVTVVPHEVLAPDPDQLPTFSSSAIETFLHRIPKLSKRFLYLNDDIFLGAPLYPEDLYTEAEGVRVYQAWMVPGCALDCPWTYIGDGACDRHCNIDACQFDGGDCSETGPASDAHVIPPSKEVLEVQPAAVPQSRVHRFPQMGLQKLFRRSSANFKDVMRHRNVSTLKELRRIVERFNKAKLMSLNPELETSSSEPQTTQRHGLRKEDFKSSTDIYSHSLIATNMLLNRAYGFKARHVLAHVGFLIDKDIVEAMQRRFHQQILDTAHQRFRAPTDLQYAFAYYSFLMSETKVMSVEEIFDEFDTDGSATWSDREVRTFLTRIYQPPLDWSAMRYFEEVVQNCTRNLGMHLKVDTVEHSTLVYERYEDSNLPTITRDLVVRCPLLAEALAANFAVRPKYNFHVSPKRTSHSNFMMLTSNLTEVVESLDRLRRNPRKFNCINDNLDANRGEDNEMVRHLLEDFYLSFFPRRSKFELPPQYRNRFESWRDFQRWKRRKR

[4] = biological target: T3, hPTase-αβ (soluble full-length human GlcNAc-1-phosphotransferase) (Homo sapiens, UniProt Q3T906); experiment: cryo-EM structure, […] Å; assay type: binding; details: 10 mM UDP-GlcNAc, 10 mM MnCl2, 6 h at 4 °C; donor site in the catalytic pocket with two Mn2+
T3 construct: gene GNPTAB; soluble secreted form of the alpha/beta precursor, cut by site-1 protease at K928/D929; no gamma subunit; dimer
T3 sequence (Q3T906 44-928 limits assumed): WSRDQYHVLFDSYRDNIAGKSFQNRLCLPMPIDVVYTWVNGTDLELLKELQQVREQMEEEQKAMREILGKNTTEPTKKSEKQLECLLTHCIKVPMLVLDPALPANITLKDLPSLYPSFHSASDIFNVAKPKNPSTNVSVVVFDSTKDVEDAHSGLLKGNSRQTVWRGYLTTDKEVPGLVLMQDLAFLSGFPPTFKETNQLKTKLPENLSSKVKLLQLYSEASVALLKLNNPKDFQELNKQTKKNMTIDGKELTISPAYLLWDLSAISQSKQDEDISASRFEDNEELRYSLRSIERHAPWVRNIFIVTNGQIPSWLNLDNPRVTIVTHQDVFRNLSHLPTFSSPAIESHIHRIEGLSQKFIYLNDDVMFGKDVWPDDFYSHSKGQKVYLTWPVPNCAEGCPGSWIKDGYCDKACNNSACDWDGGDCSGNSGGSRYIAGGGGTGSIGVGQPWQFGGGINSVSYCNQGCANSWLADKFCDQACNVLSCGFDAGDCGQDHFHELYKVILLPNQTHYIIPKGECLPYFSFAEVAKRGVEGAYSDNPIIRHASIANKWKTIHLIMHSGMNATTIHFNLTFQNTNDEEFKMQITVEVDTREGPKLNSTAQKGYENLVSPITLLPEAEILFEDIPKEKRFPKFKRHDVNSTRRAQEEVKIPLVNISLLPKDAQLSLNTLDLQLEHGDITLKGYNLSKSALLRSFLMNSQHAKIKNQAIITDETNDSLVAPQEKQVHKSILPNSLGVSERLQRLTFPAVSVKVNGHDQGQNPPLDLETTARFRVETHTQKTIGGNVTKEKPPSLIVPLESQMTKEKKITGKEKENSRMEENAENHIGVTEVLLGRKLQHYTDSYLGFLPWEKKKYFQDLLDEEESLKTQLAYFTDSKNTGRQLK
T3 sequence (Q3T906 929-1214 limits assumed): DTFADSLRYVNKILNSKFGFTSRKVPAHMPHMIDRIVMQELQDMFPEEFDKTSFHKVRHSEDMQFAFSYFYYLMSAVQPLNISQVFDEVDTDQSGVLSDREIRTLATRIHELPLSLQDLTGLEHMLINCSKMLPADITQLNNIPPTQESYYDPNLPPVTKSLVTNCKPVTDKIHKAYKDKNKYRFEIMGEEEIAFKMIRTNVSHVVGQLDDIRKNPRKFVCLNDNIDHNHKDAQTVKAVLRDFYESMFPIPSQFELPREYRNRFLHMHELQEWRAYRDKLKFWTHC

[5] = biological target: T4, S1S3 (Homo sapiens, UniProt Q3T906); experiment: UDP-[3H]GlcNAc radiolabel transfer assay, QAE-Sephadex; assay type: biochemical; details: saturating UDP-[3H]GlcNAc; Mn2+ and Mg2+, pH 7.4, 37 °C (general assay); mean of two assays
T4 construct: gene GNPTAB; soluble truncation, no TM domains; S1 (233 aa) replaced by 29-aa Dictyostelium discoideum PTase linker; Notch1 to S1P site deleted, GGSGG linker; melittin signal, N-HA, C-HPC4; secreted from T. ni cells; single chain, dimer

[6] = substrate: CO[C@H]1O[C@H](CO)[C@@H](O)[C@H](O)[C@@H]1O; experiment: as above; assay type: biochemical, Homo sapiens; details: saturating UDP-[3H]GlcNAc, Mn2+ and Mg2+, pH 7.4, 37 °C (general assay), mean of two assays

T1 sequence (Q3T906 929-1214 H959F limits assumed, one chain of several): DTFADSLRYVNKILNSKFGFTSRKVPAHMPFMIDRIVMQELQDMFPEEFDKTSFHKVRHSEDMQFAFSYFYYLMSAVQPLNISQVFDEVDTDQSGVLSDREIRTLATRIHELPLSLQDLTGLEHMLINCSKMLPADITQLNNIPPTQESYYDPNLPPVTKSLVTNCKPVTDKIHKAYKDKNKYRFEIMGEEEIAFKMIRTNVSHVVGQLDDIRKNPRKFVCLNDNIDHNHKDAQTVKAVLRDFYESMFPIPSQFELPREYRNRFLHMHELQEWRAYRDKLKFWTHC

- stoichiometry N [1]: 2
Molecule: soluble S1S3, truncated hyperactive variant of human GlcNAc-1-phosphotransferase (PTase) αβ lacking both transmembrane domains and cytosolic tails (enzyme)

Molecule: CC(=O)N[C@H]1[C@H](O[C@H]2[C@H](O)[C@@H](NC(C)=O)C(O)O[C@@H]2CO)O[C@H](CO)[C@@H](O[C@@H]2O[C@H](CO[C@H]3O[C@H](CO[C@H]4O[C@H](CO)[C@@H](O)[C@H](O)[C@@H]4O[C@H]4O[C@H](CO)[C@@H](O)[C@H](O)[C@@H]4O)[C@@H](O)[C@H](O[C@H]4O[C@H](CO)[C@@H](O)[C@H](O)[C@@H]4O[C@H]4O[C@H](CO)[C@@H](O)[C@H](O)[C@@H]4O)[C@@H]3O)[C@@H](O)[C@H](O[C@H]3O[C@H](CO)[C@@H](O)[C@H](O)[C@@H]3O[C@H]3O[C@H](CO)[C@@H](O)[C@H](O)[C@@H]3O[C@H]3O[C@H](CO)[C@@H](O)[C@H](O)[C@@H]3O)[C@@H]2O)[C@@H]1O (some centres unmarked) [Man-9, Man9GlcNAc2]
- PTase activity assay, UDP-[3H]GlcNAc ([2]; 0.34 mM Man-9): The His-279-Phe mutation caused a significant decrease in activity toward the three acceptors

Molecule: CO[C@H]1O[C@H](CO)[C@@H](O)[C@H](O)[C@@H]1O [α-MM, methyl α-D-mannopyranoside]
- PTase activity assay, UDP-[3H]GlcNAc ([2]; 100 mM α-MM): The His-279-Phe mutation caused a significant decrease in activity toward the three acceptors

Molecule: CC(=O)N[C@H]1[C@@H](OP(=O)(O)OP(=O)(O)OC[C@H]2O[C@@H](n3ccc(=O)[nH]c3=O)[C@H](O)[C@@H]2O)O[C@H](CO)[C@@H](O)[C@@H]1O [UDP-GlcNAc]
- PTase activity assay, UDP-[3H]GlcNAc [3]: Dm PTase is capable of using UDP-GlcNAc as a nucleotide sugar donor
- cryo-EM structure, 2.9 Å [4]: we resolved the cryo-EM structure of hPTase in the presence of the nucleotide donor sugar

- Km [5]: 53.6 mM
Molecule: OC[C@H]1O[C@H](O[C@@H]2C(O)O[C@H](CO)[C@@H](O)[C@@H]2O)[C@@H](O)[C@@H](O)[C@@H]1O (stereo partly drawn) [mannobiose, 2-α-mannobiose]

B1: hPTase-αβ (soluble full-length human GlcNAc-1-phosphotransferase) (Homo sapiens) (protein)
chain 1: T3 sequence (Q3T906 44-928 limits assumed)
chain 2: T3 sequence (Q3T906 929-1214 limits assumed)
notes: soluble secreted form of the alpha/beta precursor, cut by site-1 protease at K928/D929; no gamma subunit; dimer
- Km [6]: 57,100 μM
- kcat [6]: 0.153 s⁻¹
